In publication PMC6138237, “Machine intelligence decrypts β-lapachone as an allosteric 5-lipoxygenase inhibitor” (Chemical Science, 2018):
Read-outs that look alike come from different tables or passages of the source. Values belong to the compound of their own block, whether it stands above or below them.

Tests used:
[1] = target: T1, 15-LO-2 (Homo sapiens, UniProt O15296); test: 15-LO-2 inhibition assay, Cerep (Method A, fluorometry); type: biochemical; settings: control
T1 sequence (O15296 1-676): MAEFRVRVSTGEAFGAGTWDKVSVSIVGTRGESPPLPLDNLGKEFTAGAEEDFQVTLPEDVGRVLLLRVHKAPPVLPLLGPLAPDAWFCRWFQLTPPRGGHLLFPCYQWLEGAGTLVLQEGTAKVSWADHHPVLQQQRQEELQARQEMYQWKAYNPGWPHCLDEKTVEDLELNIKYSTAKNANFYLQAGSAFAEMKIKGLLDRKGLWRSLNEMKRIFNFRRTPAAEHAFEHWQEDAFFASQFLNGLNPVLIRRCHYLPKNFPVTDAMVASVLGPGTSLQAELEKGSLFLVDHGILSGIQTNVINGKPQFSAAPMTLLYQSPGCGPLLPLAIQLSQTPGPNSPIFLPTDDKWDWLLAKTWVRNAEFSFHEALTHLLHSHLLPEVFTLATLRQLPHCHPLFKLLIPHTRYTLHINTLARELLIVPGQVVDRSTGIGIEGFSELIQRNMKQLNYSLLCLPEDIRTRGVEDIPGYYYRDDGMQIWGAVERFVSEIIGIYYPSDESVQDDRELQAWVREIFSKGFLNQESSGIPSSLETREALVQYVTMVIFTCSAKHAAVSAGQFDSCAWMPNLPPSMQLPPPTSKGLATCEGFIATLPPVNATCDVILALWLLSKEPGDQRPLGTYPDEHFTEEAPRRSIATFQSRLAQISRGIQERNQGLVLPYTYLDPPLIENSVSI

[2] = target: T2, 5-LO (Homo sapiens, UniProt P09917); test: 5-LO inhibition assay, Cerep (Method A, indirect fluorogenic readout, Rhodamine 123); type: biochemical; settings: 5-LO
T2 sequence (P09917 1-674): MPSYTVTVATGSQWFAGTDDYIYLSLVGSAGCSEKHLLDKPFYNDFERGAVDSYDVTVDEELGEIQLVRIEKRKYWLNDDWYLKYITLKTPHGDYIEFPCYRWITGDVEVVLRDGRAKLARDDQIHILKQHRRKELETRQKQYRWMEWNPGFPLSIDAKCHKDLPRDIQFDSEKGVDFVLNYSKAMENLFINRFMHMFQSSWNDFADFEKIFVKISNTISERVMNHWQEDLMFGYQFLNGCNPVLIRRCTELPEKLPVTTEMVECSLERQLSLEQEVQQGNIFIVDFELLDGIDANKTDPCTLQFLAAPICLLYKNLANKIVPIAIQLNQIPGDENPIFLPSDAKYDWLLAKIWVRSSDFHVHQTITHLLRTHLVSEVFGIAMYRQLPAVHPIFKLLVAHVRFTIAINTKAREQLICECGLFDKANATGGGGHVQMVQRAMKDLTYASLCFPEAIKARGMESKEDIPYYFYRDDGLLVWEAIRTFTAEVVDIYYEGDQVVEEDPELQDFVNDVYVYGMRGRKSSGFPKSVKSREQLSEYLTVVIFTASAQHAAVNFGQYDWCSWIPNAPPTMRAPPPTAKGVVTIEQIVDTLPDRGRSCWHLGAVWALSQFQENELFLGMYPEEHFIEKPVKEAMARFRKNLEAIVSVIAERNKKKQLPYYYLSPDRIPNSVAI

[3] = target: T3, EP3 (Homo sapiens, UniProt P43115); test: EP3 functional antagonist assay, Cerep (sulprostone 0.1 nM, impedance); settings: EP3 concentration–inhibition curve; n = 2
T3 sequence (P43115 1-390): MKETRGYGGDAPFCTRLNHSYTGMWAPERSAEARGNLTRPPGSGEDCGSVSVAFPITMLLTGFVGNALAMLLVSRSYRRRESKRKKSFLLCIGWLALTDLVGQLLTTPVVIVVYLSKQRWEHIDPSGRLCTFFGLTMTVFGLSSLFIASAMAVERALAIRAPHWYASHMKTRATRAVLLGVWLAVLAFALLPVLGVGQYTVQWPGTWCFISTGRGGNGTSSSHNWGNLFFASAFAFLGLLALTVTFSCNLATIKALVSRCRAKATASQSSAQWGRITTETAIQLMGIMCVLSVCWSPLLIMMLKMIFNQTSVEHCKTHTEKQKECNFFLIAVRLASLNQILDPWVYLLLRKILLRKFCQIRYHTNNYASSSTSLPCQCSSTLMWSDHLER

[4] = target: PDE5 (Homo sapiens, UniProt O76074); test: Phosphodiesterase 5 inhibition assay, Cerep (scintillation counting); type: biochemical; settings: PDE5; control
[5] = target: TRPV1 (Homo sapiens, UniProt Q8NER1); test: TRPV1 functional agonist assay, Cerep (intracellular Ca2+); type: cell-based
[6] = target: T4, TRPM8 (Homo sapiens, UniProt Q7Z2W7); test: TRPM8 functional agonist assay, Cerep (intracellular Ca2+); type: cell-based
T4 construct: Cerep, SA (fee-for-service assay) printed G018533 (citation number 33 glued on)

[7] = Dynamic light scattering (colloidal aggregation); type: physicochemical; settings: 25 °C
[8] = target: T3, EP3; test: EP3 functional agonist assay, Cerep (impedance)
[9] = target: EP2 (Homo sapiens, UniProt P43116); test: EP2 functional agonist assay, Cerep (cAMP, HTRF)
[10] = target: EP4 (Homo sapiens, UniProt P35408); test: EP4 functional agonist assay, Cerep (cAMP, HTRF)
[11] = target: T5, EP1 (Homo sapiens, UniProt P34995); test: EP1 functional agonist assay, Cerep (intracellular Ca2+)
T5 sequence (P34995 1-402): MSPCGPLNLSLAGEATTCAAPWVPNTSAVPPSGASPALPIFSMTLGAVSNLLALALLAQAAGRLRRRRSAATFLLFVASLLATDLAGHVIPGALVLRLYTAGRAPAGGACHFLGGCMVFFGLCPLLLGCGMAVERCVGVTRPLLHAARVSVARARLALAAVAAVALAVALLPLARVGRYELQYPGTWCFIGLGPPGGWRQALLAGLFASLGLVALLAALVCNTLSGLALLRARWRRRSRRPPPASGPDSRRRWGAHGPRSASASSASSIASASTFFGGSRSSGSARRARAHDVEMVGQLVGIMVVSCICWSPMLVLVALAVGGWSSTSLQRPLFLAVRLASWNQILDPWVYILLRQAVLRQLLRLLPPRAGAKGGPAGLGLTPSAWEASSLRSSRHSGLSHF

[12] = target: SIK (Homo sapiens, UniProt P57059); test: ExpresS Diversity Kinase Profile, Cerep (LANCE): SIK; type: biochemical; settings: control
[13] = target: p38α (Homo sapiens, UniProt Q16539); test: ExpresS Diversity Kinase Profile, Cerep (LANCE): p38α; type: biochemical; settings: control
[14] = n = 2, read-out: % inhibition of control values, Mean
[15] = read-out: % inhibition of control values, 1st measure
[16] = read-out: % inhibition of control values, 2nd measure
[17] = read-out: % of control values, 1st measurement
[18] = read-out: % of control values, 2nd measurement
[19] = read-out: % of control values, Mean

Chain of TRPV1 (Q8NER1 whole entry): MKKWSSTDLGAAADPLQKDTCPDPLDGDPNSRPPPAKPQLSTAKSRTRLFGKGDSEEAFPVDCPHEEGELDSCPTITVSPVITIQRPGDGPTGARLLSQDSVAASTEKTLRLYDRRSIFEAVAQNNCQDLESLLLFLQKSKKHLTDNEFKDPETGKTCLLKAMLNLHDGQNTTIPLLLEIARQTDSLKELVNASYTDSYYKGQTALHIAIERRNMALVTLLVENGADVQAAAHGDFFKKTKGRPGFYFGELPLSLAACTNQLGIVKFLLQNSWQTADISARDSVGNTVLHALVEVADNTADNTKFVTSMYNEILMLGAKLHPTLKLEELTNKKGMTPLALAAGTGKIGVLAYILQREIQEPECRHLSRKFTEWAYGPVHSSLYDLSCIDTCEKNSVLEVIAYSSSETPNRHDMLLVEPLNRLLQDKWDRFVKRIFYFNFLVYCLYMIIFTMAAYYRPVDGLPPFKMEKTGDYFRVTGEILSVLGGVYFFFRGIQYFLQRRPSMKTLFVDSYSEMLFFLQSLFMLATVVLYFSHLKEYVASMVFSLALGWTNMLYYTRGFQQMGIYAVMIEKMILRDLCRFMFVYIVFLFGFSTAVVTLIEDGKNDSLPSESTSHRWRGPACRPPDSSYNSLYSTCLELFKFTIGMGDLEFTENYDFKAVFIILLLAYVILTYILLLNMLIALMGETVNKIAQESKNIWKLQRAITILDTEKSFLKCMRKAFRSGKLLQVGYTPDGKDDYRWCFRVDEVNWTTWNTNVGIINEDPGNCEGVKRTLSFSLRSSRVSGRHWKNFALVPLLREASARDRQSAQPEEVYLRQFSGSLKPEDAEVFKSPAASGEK
Chain of EP4 (P35408 whole entry): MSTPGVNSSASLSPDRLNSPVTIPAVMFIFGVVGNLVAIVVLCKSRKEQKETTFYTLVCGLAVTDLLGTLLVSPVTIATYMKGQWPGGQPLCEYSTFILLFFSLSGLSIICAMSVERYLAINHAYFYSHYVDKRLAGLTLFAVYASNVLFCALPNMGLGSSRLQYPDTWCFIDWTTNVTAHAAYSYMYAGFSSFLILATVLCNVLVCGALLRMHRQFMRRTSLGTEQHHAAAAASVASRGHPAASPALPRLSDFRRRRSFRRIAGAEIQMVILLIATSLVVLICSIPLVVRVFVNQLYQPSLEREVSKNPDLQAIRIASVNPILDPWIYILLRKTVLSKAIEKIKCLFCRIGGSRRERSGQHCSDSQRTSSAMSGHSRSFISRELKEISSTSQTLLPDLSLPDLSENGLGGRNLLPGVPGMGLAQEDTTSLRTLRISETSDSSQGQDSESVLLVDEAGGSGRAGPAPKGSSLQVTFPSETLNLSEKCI
Chain of EP2 (P43116 whole entry): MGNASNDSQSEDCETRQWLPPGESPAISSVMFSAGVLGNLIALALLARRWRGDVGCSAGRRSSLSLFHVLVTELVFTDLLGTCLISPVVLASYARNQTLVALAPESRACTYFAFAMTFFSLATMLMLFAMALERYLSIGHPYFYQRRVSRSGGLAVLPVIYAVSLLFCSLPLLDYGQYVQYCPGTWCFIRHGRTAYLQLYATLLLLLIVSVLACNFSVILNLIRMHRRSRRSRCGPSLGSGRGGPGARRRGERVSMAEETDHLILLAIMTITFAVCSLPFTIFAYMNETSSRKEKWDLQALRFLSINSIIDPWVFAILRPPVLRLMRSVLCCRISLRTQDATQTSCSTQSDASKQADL
T4 sequence (Q7Z2W7 whole entry): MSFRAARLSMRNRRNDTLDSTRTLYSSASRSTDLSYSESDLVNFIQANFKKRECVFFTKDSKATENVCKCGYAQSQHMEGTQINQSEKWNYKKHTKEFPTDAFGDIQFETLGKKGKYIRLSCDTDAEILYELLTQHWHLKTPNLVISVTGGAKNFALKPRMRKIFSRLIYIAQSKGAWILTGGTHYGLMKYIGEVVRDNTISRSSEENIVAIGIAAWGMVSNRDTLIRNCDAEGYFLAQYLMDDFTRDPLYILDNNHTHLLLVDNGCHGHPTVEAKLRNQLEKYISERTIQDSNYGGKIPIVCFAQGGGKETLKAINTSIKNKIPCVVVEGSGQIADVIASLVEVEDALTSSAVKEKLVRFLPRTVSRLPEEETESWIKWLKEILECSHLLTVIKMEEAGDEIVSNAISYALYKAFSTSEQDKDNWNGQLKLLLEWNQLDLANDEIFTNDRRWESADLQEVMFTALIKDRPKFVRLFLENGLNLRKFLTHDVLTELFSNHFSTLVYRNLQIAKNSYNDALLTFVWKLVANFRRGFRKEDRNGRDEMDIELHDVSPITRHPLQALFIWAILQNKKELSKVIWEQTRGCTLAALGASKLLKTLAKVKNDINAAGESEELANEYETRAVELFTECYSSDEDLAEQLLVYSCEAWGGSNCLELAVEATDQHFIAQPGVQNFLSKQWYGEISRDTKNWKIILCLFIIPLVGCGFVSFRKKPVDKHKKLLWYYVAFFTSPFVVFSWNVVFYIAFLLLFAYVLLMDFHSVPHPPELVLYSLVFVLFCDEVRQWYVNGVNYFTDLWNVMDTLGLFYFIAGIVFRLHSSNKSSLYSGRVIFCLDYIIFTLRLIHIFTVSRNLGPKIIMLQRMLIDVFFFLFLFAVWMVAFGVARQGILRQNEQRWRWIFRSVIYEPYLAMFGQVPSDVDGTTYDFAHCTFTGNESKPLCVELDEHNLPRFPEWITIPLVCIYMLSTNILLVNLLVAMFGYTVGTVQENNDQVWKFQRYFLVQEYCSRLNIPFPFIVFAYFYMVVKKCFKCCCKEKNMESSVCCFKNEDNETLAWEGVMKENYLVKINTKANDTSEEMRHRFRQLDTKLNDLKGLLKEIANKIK
Chain of p38α (Q16539 whole entry): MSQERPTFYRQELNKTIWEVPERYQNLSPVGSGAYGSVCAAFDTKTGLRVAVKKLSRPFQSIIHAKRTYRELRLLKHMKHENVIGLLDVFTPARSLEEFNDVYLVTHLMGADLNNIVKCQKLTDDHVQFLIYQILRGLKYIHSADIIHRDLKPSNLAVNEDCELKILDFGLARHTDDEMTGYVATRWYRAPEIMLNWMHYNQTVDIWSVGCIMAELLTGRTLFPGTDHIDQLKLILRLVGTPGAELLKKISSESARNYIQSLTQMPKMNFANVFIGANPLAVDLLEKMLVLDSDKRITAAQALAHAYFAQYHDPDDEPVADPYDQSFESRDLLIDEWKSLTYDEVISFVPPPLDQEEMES
Chain of SIK (P57059 whole entry): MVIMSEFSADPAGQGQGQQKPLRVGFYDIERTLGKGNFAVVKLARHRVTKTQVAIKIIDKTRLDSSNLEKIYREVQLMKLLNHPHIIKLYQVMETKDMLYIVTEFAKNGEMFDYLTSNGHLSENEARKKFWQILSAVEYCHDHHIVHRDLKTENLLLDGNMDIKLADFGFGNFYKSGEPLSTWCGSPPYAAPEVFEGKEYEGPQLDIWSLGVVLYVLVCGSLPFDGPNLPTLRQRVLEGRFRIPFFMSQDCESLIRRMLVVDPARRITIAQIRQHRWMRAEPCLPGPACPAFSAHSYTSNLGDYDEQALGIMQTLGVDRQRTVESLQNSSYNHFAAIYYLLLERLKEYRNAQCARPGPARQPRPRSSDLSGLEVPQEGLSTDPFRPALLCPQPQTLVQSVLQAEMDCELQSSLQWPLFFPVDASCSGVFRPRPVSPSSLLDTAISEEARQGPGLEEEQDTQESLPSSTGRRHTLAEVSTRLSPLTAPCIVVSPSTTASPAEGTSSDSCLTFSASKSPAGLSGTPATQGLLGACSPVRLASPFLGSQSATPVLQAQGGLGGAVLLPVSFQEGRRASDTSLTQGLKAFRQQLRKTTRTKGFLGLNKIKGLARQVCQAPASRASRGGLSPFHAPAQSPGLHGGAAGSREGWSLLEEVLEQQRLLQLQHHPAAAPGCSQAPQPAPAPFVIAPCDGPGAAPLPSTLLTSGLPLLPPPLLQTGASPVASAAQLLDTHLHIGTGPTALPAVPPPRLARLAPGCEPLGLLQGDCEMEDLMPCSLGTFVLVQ

- nHill [1]: 0.7
Compound: N#C/C(=C\c1ccc(O)c(O)c1)C(=O)OCCc1cccs1 [Compound 2-TEDC, reference compound]

- inhibition at 5 µM [2, 14]: 32.2%
- inhibition at 5 µM [2, 15]: 42.2%
- inhibition at 5 µM [2, 16]: 22.2%
Compound: CC1(C)OC2=C(C(=O)C(=O)c3ccccc32)C1Nc1ccccc1 (stereo not drawn) [Compound 2]

- inhibition at 5 µM [2, 14]: 31.1%
- inhibition at 5 µM [2, 15]: 33.1%
- inhibition at 5 µM [2, 16]: 29%
Compound: CC1(C)OC2=C(C(=O)C(=O)c3ccccc32)C1Nc1ccc(Cl)cc1 (stereo not drawn) [Compound 3]

- inhibition at 5 µM [2, 14]: 72.8%
- inhibition at 5 µM [2, 15]: 77.4%
- inhibition at 5 µM [2, 16]: 68.2%
Compound: CC1(C)OC2=C(C(=O)C(=O)c3ccccc32)C1O (stereo not drawn) [Compound 4]

- inhibition at 5 µM [2, 14]: 41.1%
- inhibition at 5 µM [2, 15]: 47.2%
- inhibition at 5 µM [2, 16]: 35.5%
Compound: CC1(C)OC2=C(CC1O)C(=O)C(=O)c1ccccc12 (stereo not drawn) [Compound 5]

- inhibition at 5 µM [2, 14]: 54.8%
- inhibition at 5 µM [2, 15]: 51.5%
- inhibition at 5 µM [2, 16]: 58.1%
Compound: CC1(C)OC2=C(C(=O)C(=O)c3ccccc32)C1Nc1ccc(C(=O)/C=C/c2ccccc2)cc1 (stereo not drawn) [Compound 6]

- inhibition at 5 µM [2, 14]: 75.4%
- inhibition at 5 µM [2, 15]: 73.8%
- inhibition at 5 µM [2, 16]: 76.9%
Compound: CC(=O)OCC1OC(OCc2cn(CC3C4=C(OC3(C)C)c3ccccc3C(=O)C4=O)nn2)C(OC(C)=O)C(OC(C)=O)C1OC(C)=O (stereo not drawn) [Compound 7]

- inhibition at 5 µM [2, 14]: 66.6%
- inhibition at 5 µM [2, 15]: 68.4%
- inhibition at 5 µM [2, 16]: 64.8%
Compound: CC(=O)OCC1OC(OCc2cn(C3C4=C(OC3(C)C)c3ccccc3C(=O)C4=O)nn2)C(OC(C)=O)C(OC(C)=O)C1OC(C)=O (stereo not drawn) [Compound 8]

Compound: COc1ccc(Br)cc1S(=O)(=O)NC(=O)/C=C/c1ccccc1Cc1ccc2ccccc2c1 [Compound L798106, reference compound]
- IC50 [3]: 370 nM

- nHill [4]: 1.3
Compound: OCCN(CCO)c1nc(N2CCCCC2)c2nc(N(CCO)CCO)nc(N3CCCCC3)c2n1 [Dipyridamole, reference compound]

Compound: CC(C)=CCC1=C(O)C(=O)c2ccccc2C1=O [Lapachol, lapachol, reference compound]
- inhibition at 150 µM [2, 14]: 87.1%
- inhibition at 150 µM [2, 15]: 84.9%
- inhibition at 150 µM [2, 16]: 89.3%
- remaining activity at 150 µM [5, 17]: -13.1%
- remaining activity at 150 µM [5, 18]: -13.1%
- remaining activity at 150 µM [5, 19]: -13.1%
- agonist response (% of control) at 150 µM [6, 17]: -20.4%
- agonist response (% of control) at 150 µM [6, 18]: -20.4%
- agonist response (% of control) at 150 µM [6, 19]: -20.4%
- Count rate (kcps) ([7]; 25 µM in H2O + 0.1% DMSO): 250.6 kcps
- Count rate (kcps) ([7]; 50 µM in H2O + 0.1% DMSO): 198.4 kcps
- Count rate (kcps) ([7]; 100 µM in H2O + 0.1% DMSO): 882.6 kcps
- remaining activity at 150 µM [8, 17]: 22.7%
- remaining activity at 150 µM [8, 18]: 21.7%
- remaining activity at 150 µM [8, 19]: 22.2%
- remaining activity at 150 µM [9, 17]: -1.2%
- remaining activity at 150 µM [9, 18]: -2.4%
- remaining activity at 150 µM [9, 19]: -1.8%
- remaining activity at 150 µM [10, 17]: 8%
- remaining activity at 150 µM [10, 18]: 5.8%
- remaining activity at 150 µM [10, 19]: 6.9%
- remaining activity at 150 µM [11, 17]: -11.3%
- remaining activity at 150 µM [11, 18]: -11.3%
- remaining activity at 150 µM [11, 19]: -11.3%

- nHill ([2]; control): 1.5
Compound: CC(Cc1ccc(O)c(O)c1)C(C)Cc1ccc(O)c(O)c1 (stereo not drawn) [NDGA, reference compound]

Compound: Cn1cc(C2=C(c3cn(CCCSC(=N)N)c4ccccc34)C(=O)NC2=O)c2ccccc21 [Ro-318220, reference compound]
- nHill [12]: 0.7

- nHill [13]: 1.3
Compound: Oc1ccc(-c2nc(-c3ccncc3)c(-c3ccc(F)cc3)[nH]2)cc1 [SB202190, reference compound]
